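Test compounds were applied to cells in 96-well plates for 48 hours at 5 doses. GI50 is the concentration that inhibits growth by half.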 Active and inactive are the calls of the source. No stated cut-off is given here; in the data, active = GI50 up to about 1.1 µM and inactive = higher.
Legend:
Test in all cases: growth of human tumour cells (NCI), 48 h
[1] = tested on: BT-549
[2] = tested on: SK-OV-3
[3] = tested on: TK-10
[4] = tested on: UACC-257
[5] = tested on: HOP-62
[6] = tested on: UO-31
[7] = tested on: PC-3
[8] = tested on: NCI-H460
[9] = tested on: MDA-MB-231
[10] = tested on: KM12
[11] = tested on: SR
[12] = tested on: DU-145
[13] = tested on: OVCAR-3
[14] = tested on: CAKI-1
[15] = tested on: SF-539
[16] = tested on: MDA-MB-435
[17] = tested on: MOLT-4
[18] = tested on: COLO 205
[19] = tested on: SNB-19
[20] = tested on: HCC 2998

SMILES | GI50 [1] | GI50 [2] | GI50 [3] | GI50 [4] | GI50 [5] | GI50 [6] | GI50 [7] | GI50 [8] | GI50 [9] | GI50 [10] | GI50 [11] | GI50 [12] | GI50 [13] | GI50 [14] | GI50 [15] | GI50 [16] | GI50 [17] | GI50 [18] | GI50 [19] | GI50 [20]
COc1cc2nc(-c3cccs3)nc(Nc3cccc(Cl)c3)c2cc1OC | 59.2 µM (inactive) | 48.1 µM (inactive) | 2.3 µM (inactive) | > 100 µM (inactive) | 20.3 µM (inactive) | > 100 µM (inactive) | 21.1 µM (inactive) | 42.8 µM (inactive) | > 100 µM (inactive) | 43.2 µM (inactive) | 91.6 µM (inactive) | 90.6 µM (inactive) | 52.8 µM (inactive) | > 100 µM (inactive) | 37.2 µM (inactive) | 61.9 µM (inactive) | 61.8 µM (inactive) | > 100 µM (inactive) | 35.2 µM (inactive) | 
COC(=O)c1cc(-c2ccc(-c3ccc(O)cc3)cc2)cc(-c2ccc(-c3ccc(O)cc3)cc2)c1 | 13.7 µM (inactive) | 15.6 µM (inactive) | 13.6 µM (inactive) | 14.1 µM (inactive) | 12.1 µM (inactive) | 11.5 µM (inactive) | 10.8 µM (inactive) | 17.8 µM (inactive) | 17.9 µM (inactive) | 2.17 µM (inactive) |  |  | 12 µM (inactive) | 16 µM (inactive) | 5.33 µM (inactive) | 10.4 µM (inactive) | 10.4 µM (inactive) | 12.6 µM (inactive) | 15.5 µM (inactive) | 11.2 µM (inactive)
O=c1cc(N2CCOCC2)oc2c(-c3ccccc3)cccc12 [LY-294002] | 5.7 µM (inactive) | 14.2 µM (inactive) | 23.7 µM (inactive) | 14.5 µM (inactive) | 4.59 µM (inactive) | 15.8 µM (inactive) | 2.34 µM (inactive) | 11.4 µM (inactive) | 3.13 µM (inactive) | 12.1 µM (inactive) | 3.36 µM (inactive) | 12.4 µM (inactive) | 7.16 µM (inactive) | 2.39 µM (inactive) | 7.98 µM (inactive) | 7.8 µM (inactive) | 11.4 µM (inactive) | 13.5 µM (inactive) | 14.6 µM (inactive) | 
O=S(=O)(c1ccccc1)n1c(C(O)c2ccccc2)cc2ccccc21 (stereo not given) | 15.8 µM (inactive) | 15 µM (inactive) | 17.3 µM (inactive) | 16.2 µM (inactive) | 17.9 µM (inactive) | 11.7 µM (inactive) | 15.7 µM (inactive) | 25.3 µM (inactive) | 17.3 µM (inactive) | 15 µM (inactive) |  | 33.9 µM (inactive) | 16.7 µM (inactive) | 17.7 µM (inactive) | 16.7 µM (inactive) | 16.6 µM (inactive) | 36.4 µM (inactive) | 15.9 µM (inactive) | 13.7 µM (inactive) | 17.5 µM (inactive)
CCCCCCc1cc2cc(-c3cn4ccsc4n3)c(=O)oc2cc1O | > 100 µM (inactive) | > 100 µM (inactive) | > 95.3 µM (inactive) | > 24.5 µM (inactive) | 64.9 µM (inactive) | > 100 µM (inactive) | > 100 µM (inactive) | > 100 µM (inactive) | > 75 µM (inactive) | > 100 µM (inactive) | > 100 µM (inactive) | > 79.1 µM (inactive) | > 77.1 µM (inactive) | > 71.1 µM (inactive) | 64.3 µM (inactive) |  | > 100 µM (inactive) | > 100 µM (inactive) | > 100 µM (inactive) | > 100 µM (inactive)
CSc1nncc2[nH]cnc12 | > 100 µM (inactive) |  | > 100 µM (inactive) | > 100 µM (inactive) | > 100 µM (inactive) | > 100 µM (inactive) | > 100 µM (inactive) | > 100 µM (inactive) | > 100 µM (inactive) | > 100 µM (inactive) | > 100 µM (inactive) | > 100 µM (inactive) | > 100 µM (inactive) | > 100 µM (inactive) | > 100 µM (inactive) | > 100 µM (inactive) | > 100 µM (inactive) | > 100 µM (inactive) | > 100 µM (inactive) | 
CSc1cc(-c2cccs2)sc1-c1cc(SC)c(-c2sc(-c3sc(-c4cccs4)cc3SC)cc2SC)s1 | > 100 µM (inactive) | > 100 µM (inactive) | > 100 µM (inactive) | > 100 µM (inactive) | > 100 µM (inactive) |  | > 100 µM (inactive) | > 100 µM (inactive) | > 100 µM (inactive) | > 100 µM (inactive) |  | > 100 µM (inactive) | > 100 µM (inactive) | > 100 µM (inactive) | > 100 µM (inactive) | > 100 µM (inactive) | > 100 µM (inactive) | > 100 µM (inactive) | > 100 µM (inactive) | > 100 µM (inactive)
NCCC1(N)CCNCC1 | > 100 µM (inactive) | > 100 µM (inactive) | > 100 µM (inactive) | > 100 µM (inactive) |  | > 100 µM (inactive) | > 100 µM (inactive) | > 100 µM (inactive) | > 100 µM (inactive) | > 100 µM (inactive) | > 100 µM (inactive) | > 100 µM (inactive) |  | > 100 µM (inactive) | > 100 µM (inactive) | > 100 µM (inactive) | > 100 µM (inactive) | > 100 µM (inactive) | > 100 µM (inactive) | 
CC(=O)OCCCCn1cc(Cn2ccc(=O)n(Cc3cn(CCCCOC(C)=O)nn3)c2=O)nn1 | > 100 µM (inactive) | > 100 µM (inactive) | > 100 µM (inactive) | > 100 µM (inactive) | > 100 µM (inactive) | > 100 µM (inactive) | > 100 µM (inactive) |  | > 100 µM (inactive) | > 100 µM (inactive) |  | > 100 µM (inactive) | > 100 µM (inactive) | > 100 µM (inactive) | > 100 µM (inactive) | > 100 µM (inactive) | > 100 µM (inactive) | > 100 µM (inactive) | > 100 µM (inactive) | > 100 µM (inactive)
COc1ccc(NCc2c(O)ccc3ccccc23)cc1 | 18.6 µM (inactive) | > 100 µM (inactive) | 17.9 µM (inactive) | 18.4 µM (inactive) | 68.2 µM (inactive) | 11.3 µM (inactive) | 17.1 µM (inactive) | 49.9 µM (inactive) | 30 µM (inactive) | 67.1 µM (inactive) | 17.1 µM (inactive) | 76 µM (inactive) | 27.2 µM (inactive) | 22.3 µM (inactive) | 13.2 µM (inactive) | 42.9 µM (inactive) |  | 22.8 µM (inactive) | > 100 µM (inactive) | 
COc1ccc(C2SCC(=O)N2NC(=O)c2ccc(NC(C)=O)cc2)cc1 (stereo not given) | 74.1 µM (inactive) | > 100 µM (inactive) | > 100 µM (inactive) | > 100 µM (inactive) | > 100 µM (inactive) | > 100 µM (inactive) |  | > 100 µM (inactive) | 26.5 µM (inactive) | > 100 µM (inactive) |  | > 100 µM (inactive) | > 100 µM (inactive) |  | > 100 µM (inactive) | > 100 µM (inactive) | > 100 µM (inactive) | > 100 µM (inactive) | > 100 µM (inactive) | > 100 µM (inactive)
CC(C)(C)n1c(=O)n(-c2ccccc2)n(C(C)(C)C)c1=O | > 100 µM (inactive) | > 100 µM (inactive) | > 100 µM (inactive) | > 100 µM (inactive) | > 100 µM (inactive) | > 100 µM (inactive) | > 100 µM (inactive) | > 100 µM (inactive) | > 100 µM (inactive) | > 100 µM (inactive) | > 100 µM (inactive) |  | > 100 µM (inactive) | > 100 µM (inactive) | > 100 µM (inactive) |  | > 100 µM (inactive) | > 100 µM (inactive) | > 100 µM (inactive) | > 100 µM (inactive)
C1CSCCCSCCCSCCCSCCCSCCCSCCCSCCCSC1 | > 100 µM (inactive) | > 100 µM (inactive) | > 100 µM (inactive) | > 100 µM (inactive) | > 100 µM (inactive) | > 100 µM (inactive) | > 100 µM (inactive) | > 100 µM (inactive) | > 100 µM (inactive) | > 100 µM (inactive) |  | > 100 µM (inactive) | > 100 µM (inactive) | > 100 µM (inactive) | > 100 µM (inactive) | > 100 µM (inactive) | > 100 µM (inactive) | > 100 µM (inactive) | > 100 µM (inactive) | > 100 µM (inactive)
CCOC(=O)/C(=C\c1ccc(C#N)cc1)C(C)=O | 13.5 µM (inactive) | 40.8 µM (inactive) | 24 µM (inactive) | 18.6 µM (inactive) | 36.8 µM (inactive) | 13.8 µM (inactive) | 18.5 µM (inactive) | 28.8 µM (inactive) | 15.6 µM (inactive) | 18.6 µM (inactive) |  | 18.2 µM (inactive) | 36.6 µM (inactive) | 22.2 µM (inactive) | 29 µM (inactive) | 26.8 µM (inactive) | 25.5 µM (inactive) | 31.3 µM (inactive) | 45.1 µM (inactive) | 5.92 µM (inactive)
Fc1ccc(C(OCCN2CCC3CCC(C2)N3Cc2cc3ccccc3[nH]2)c2ccc(F)cc2)cc1 (stereo not given) | 2.32 µM (inactive) | 2.33 µM (inactive) | 2.43 µM (inactive) | 1.95 µM (inactive) | 2.05 µM (inactive) | 2 µM (inactive) | 1.7 µM (inactive) | 1.78 µM (inactive) | 1.7 µM (inactive) | 1.71 µM (inactive) |  | 1.85 µM (inactive) | 1.77 µM (inactive) | 2.23 µM (inactive) | 1.59 µM (inactive) | 1.88 µM (inactive) | 1.35 µM (inactive) | 0.962 µM (active) | 2.54 µM (inactive) | 1.63 µM (inactive)

From ChEMBL document CHEMBL1201862, “PubChem BioAssay data set” (2004)
